Experimental findings from patent US20260234144A1 (TAY THERAPEUTICS LIMITED, priority 2023, published 2026) are described below.

Each structure is given as a SMILES string.

In this experiment the test system is R223X stop codon in the mutated luciferase gene, ADXC8 luciferase reporter cell line. Briefly: cells. In kind it is cell-based. As to conditions: ADXC8 cells, 24 hours; for Emax / EC (100% of 200 uM G418 response): 24 h; for Emax: read-out: Fold Over Control, maximum fold response relative to 200 μM G418; for EC (100% of 200 uM G418 response): read-out: pC100%, negative logarithm of the concentration giving the same response as 200 μM G418; for pC100%: negative logarithm of the concentration giving the same response as 200 μM G418.

Turning to `CNc1nc(NC2CCN(Cc3ccccc3O)CC2)nc2nc(C)c3c(c12)CCC3` [Example 544], the Emax is 100 to 3000% and the EC (100% of 200 uM G418 response) is 0.1 to 1 µM.

On to `Cc1cc(C)c2c(N)nc(NCC(C)(C)N3CCOCC3)nc2n1` [Example 148], for which the Emax was in the range of 100 to 3000% and the EC (100% of 200 uM G418 response) fell in the range of 10 to 100 µM.

As to `CNc1cc(NC2CCN(C)CC2)nc2nc(C)cc(C)c12` [Example 261, N^4,5,7-trimethyl-N^2-(1-methylpiperidin-4-yl)-1,8-naphthyridine-2,4-diamine], the Emax lay in the range of 100 to 3000% and the EC (100% of 200 uM G418 response) was in the range of 1 to 10 µM.

With `Cc1c2ccccc2nc2nc(NC3CCN(C)CC3)nc(N)c12` [Example 10, 5-methyl-N^2-(1-methylpiperidin-4-yl)pyrimido[4,5-b]quinoline-2,4-diamine], the Emax lay in the range of 100 to 3000% and the EC (100% of 200 uM G418 response) lay in the range of 1 to 10 µM.

`Cc1nc2nc(NC3CCN(Cc4cc(F)cc(F)c4O)CC3)nc(N)c2c2c1CCC2` [Example 536]: the Emax was in the range of 100 to 3000% and the EC (100% of 200 uM G418 response) lay within 1 to 10 µM.

Regarding `Cc1cc(C)c2c(N)nc(NCCCN3CCC4(CCOCC4)C3)nc2n1` [Example 189], the Emax was 0 to 100% and the EC (100% of 200 uM G418 response) was > 31.6 µM.

As for `CC#Cc1cnc2nc(NC3CCN(C)CC3)nc(N)c2c1` [Example 42, N^2-(1-methylpiperidin-4-yl)-6-(prop-1-yn-1-yl)pyrido[2,3-d]pyrimidine-2,4-diamine], the Emax lay within 0 to 100% and the EC (100% of 200 uM G418 response) is > 100 µM.

Take `CC(O)c1cnc2nc(NC3CCN(C)CC3)nc(N)c2c1` (stereo not drawn) [Example 126, 1-{4-amino-2-[(1-methylpiperidin-4-yl)amino]pyrido[2,3-d]pyrimidin-6-yl}ethanol]: the Emax was 0 to 100% and the EC (100% of 200 uM G418 response) was > 100 µM.

As for `Cc1cc(C)c2c(N)nc(NC3CCN(Cc4ccc(C(F)(F)F)cc4)CC3)nc2n1` [Example 456], the Emax is 100 to 3000% and the EC (100% of 200 uM G418 response) was in the range of 1 to 10 µM.

Regarding `Cc1cc(C)c2c(N)nc(NC3CCN(Cc4ccc(C#N)c(F)c4)CC3)nc2n1` [Example 570], the Emax was in the range of 100 to 3000% and the EC (100% of 200 uM G418 response) fell in the range of 0.1 to 1 µM.

As for `CN1CCC(Nc2nc(N)c3ccc(-c4cccc(CO)c4)nc3n2)CC1` [Example 92], the Emax was 100 to 3000% and the EC (100% of 200 uM G418 response) fell in the range of 10 to 100 µM.

`CNCCNc1nc(NC2CCN(C)CC2)nc2nc(C)cc(C)c12` [Example 330]: the Emax was in the range of 0 to 100% and the EC (100% of 200 uM G418 response) was > 31.6 µM.

With `CNC(=O)c1cccc(-c2ccc3c(N)nc(NC4CCN(C)CC4)nc3n2)c1` [Example 80], the Emax is 100 to 3000% and the EC (100% of 200 uM G418 response) was 10 to 100 µM.

As to `Cc1ccc(O)c(CN2CCC(Nc3nc(N)c4c(C)cc(C)nc4n3)CC2)c1` [Example 548], the Emax fell in the range of 100 to 3000% and the EC (100% of 200 uM G418 response) is 0.1 to 1 µM.

Turning to `Cc1cc(C)c2c(N)nc(NC3CCN(C4COC4)CC3)nc2n1` [Example 197], the Emax was in the range of 0 to 100% and the EC (100% of 200 uM G418 response) is > 31.6 µM.

As to `Cc1cc(C)c2c(N)nc(NCCCN3CCCCC3C)nc2n1` (stereo not drawn) [Example 150], the Emax lay within 100 to 3000% and the EC (100% of 200 uM G418 response) is 1 to 10 µM.

Take `CC#Cc1ccc2c(N)nc(NC3CCN(C)CC3)nc2n1` [Example 283]: the EC (100% of 200 uM G418 response) was in the range of 1 to 10 µM.

As for `CN1CCC(Nc2nc(N)c3ccc(C(=O)O)nc3n2)CC1` [Example 236, 4-amino-2-((1-methylpiperidin-4-yl)amino)pyrido[2,3-d]pyrimidine-7-carboxylic acid], the Emax is 0 to 100% and the EC (100% of 200 uM G418 response) is > 100 µM.

In the case of `Cc1cc(C)c2c(N)nc(NC[C@@H]3CCCN3)nc2n1` [Example 182], the Emax lay in the range of 0 to 100% and the EC (100% of 200 uM G418 response) is > 31.6 µM.

On to `Cc1cc(C)c2c(N)nc(NC3CCN(Cc4cccc5nc[nH]c45)CC3)nc2n1` [Example 660], for which the Emax fell in the range of 100 to 3000% and the EC (100% of 200 uM G418 response) lay in the range of 1 to 10 µM.

For `Cc1cc(C)c2c(N)nc(N[C@@H]3CCNC[C@@H]3F)nc2n1` [Example 586], the EC (100% of 200 uM G418 response) lay within 1 to 10 µM.

Consider `COCc1ccnc2nc(NC3CCN(C)CC3)nc(N)c12` [Example 248, 5-(methoxymethyl)-N^2-(1-methylpiperidin-4-yl)pyrido[2,3-d]pyrimidine-2,4-diamine], for which the Emax was in the range of 0 to 100% and the EC (100% of 200 uM G418 response) is > 100 µM.

`Cc1cccc(CN2CCC(Nc3nc(N)c4c(C)cc(C)nc4n3)CC2)c1` [Example 549]: the Emax lay within 100 to 3000% and the EC (100% of 200 uM G418 response) is 1 to 10 µM.

Turning to `CNc1nc(NC2CCCN3CCCC23)nc2nc(C)cc(C)c12` (stereo not drawn) [Example 598], the Emax was in the range of 100 to 3000% and the pC100% entry is “+ (pC100% > 4.0 ≤ 5.0)”.

`CN1CCC(Nc2nc(N)c3ccc(-c4cccnc4)nc3n2)CC1` [Example 25, N^2-(1-methylpiperidin-4-yl)-7-(pyridin-3-yl)pyrido[2,3-d]pyrimidine-2,4-diamine]: the Emax lay within 100 to 3000% and the EC (100% of 200 uM G418 response) was 10 to 100 µM.

As for `CC(=O)c1ccc2c(N)nc(NC3CCN(C)CC3)nc2n1` [Example 289], the Emax fell in the range of 100 to 3000% and the EC (100% of 200 uM G418 response) lay within 1 to 10 µM.

`CNc1nc(NC2CC3CC2CN3C)nc2nc(C)cc(C)c12` (single isomer, unassigned) [Example 431]: the Emax was in the range of 100 to 3000% and the pC100% entry is recorded as “+ (pC100% > 4.0 ≤ 5.0)”.

As to `COc1cccc(-c2ccc3c(N)nc(NC4CCN(C)CC4)nc3n2)c1` [Example 100], the Emax was in the range of 100 to 3000% and the EC (100% of 200 uM G418 response) lay in the range of 1 to 10 µM.

On to `Cc1cc(C)c2c(N)nc(NC3CCN(Cc4cn[nH]c4)CC3)nc2n1` [Example 572], for which the Emax was 100 to 3000% and the EC (100% of 200 uM G418 response) lay in the range of 1 to 10 µM.

Take `CNc1cc(N[C@H]2CN(C)C[C@H]2O)nc2nc3c(c(C)c12)CCC3` [Example 619]: the Emax was 100 to 3000% and the EC (100% of 200 uM G418 response) fell in the range of 1 to 10 µM.

As for `Cc1cc(C)c2c(NC3CCCC3)nc(N[C@@H]3CCNC3)nc2n1` [Example 324], the Emax lay within 0 to 100% and the EC (100% of 200 uM G418 response) is > 31.6 µM.

With `CNc1nc(NC2CNCC2C(F)F)nc2nc(C)cc(C)c12` (single isomer, unassigned) [Example 429], the pC100% result is “+++ (pC100% > 6.0 ≤ 7.0)”.

Consider `CNc1nc(N[C@H]2CN(C)C[C@@H]2OC(=O)OC(C)(C)C)nc2nc3c(c(C)c12)CCC3` [Example 685, tert-butyl ((3S,4S)-1-methyl-4-((5-methyl-4-(methylamino)-7,8-dihydro-6H-cyclopenta[5,6]pyrido[2,3-d]pyrimidin-2-yl)amino)pyrrolidin-3-yl) carbonate], for which the Emax fell in the range of 100 to 3000% and the EC (100% of 200 uM G418 response) is 0.1 to 1 µM.

In the case of `C=C(C)c1cnc2nc(NC3CCN(C)CC3)nc(N)c2c1` [Example 397], the Emax was in the range of 100 to 3000% and the EC (100% of 200 uM G418 response) lay in the range of 1 to 10 µM.

For `Cc1cc(C)c2c(N)nc(NCC3CNC3)nc2n1` [Example 199], the Emax fell in the range of 0 to 100% and the EC (100% of 200 uM G418 response) was > 31.6 µM.

For `CN1CCC(Nc2nc(N)c3ccc(-c4cccc(S(N)(=O)=O)c4)nc3n2)CC1` [Example 55], the Emax lay within 100 to 3000% and the EC (100% of 200 uM G418 response) lay in the range of 10 to 100 µM.

Regarding `CN1CCC(Nc2nc(N)c3ccc(-c4cccc(CN)c4)nc3n2)CC1` [Example 74], the EC (100% of 200 uM G418 response) lay in the range of 1 to 10 µM.

As to `Cc1cc(C)c2c(N)cc(NC3CCN(C)CC3)nc2n1` [Example 291], the Emax lay in the range of 100 to 3000% and the EC (100% of 200 uM G418 response) was 1 to 10 µM.

For `CN1CCC(Nc2nc(N)c3ccc(-c4cccc(S(C)(=O)=O)c4)nc3n2)CC1` [Example 97], the EC (100% of 200 uM G418 response) lay within 10 to 100 µM.

For the molecule `Cc1nc2nc(NC3CCNCC3)nc(N)c2c2c1CCC2` [Example 556], the Emax lay within 100 to 3000% and the EC (100% of 200 uM G418 response) fell in the range of 0.1 to 1 µM.

As for `Cc1cc(C)c2c(N)nc(NCCN3CC(C)OC(C)C3)nc2n1` (stereo not drawn) [Example 151], the Emax was 0 to 100% and the EC (100% of 200 uM G418 response) was > 31.6 µM.

On to `CNc1nc(N[C@H]2CNC[C@@H]2C)nc2nc(C)cc(C)c12` [Example 382], for which the Emax was 100 to 3000% and the EC (100% of 200 uM G418 response) fell in the range of 1 to 10 µM.

As for `Cc1c(Cl)c(-c2ccccc2)nc2nc(NCCCN3CCOCC3)nc(N)c12` [Example 128, 6-chloro-5-methyl-N2-(3-morpholinopropyl)-7-phenylpyrido[2,3-d]pyrimidine-2,4-diamine], the EC (100% of 200 uM G418 response) was in the range of 1 to 10 µM.

On to `Cc1cc(C)c2c(N)nc(NC3(CN(C)C)CC3)nc2n1` [Example 219, N^2-(1-((dimethylamino)methyl)cyclopropyl)-5,7-dimethylpyrido[2,3-d]pyrimidine-2,4-diamine], for which the Emax was 0 to 100% and the EC (100% of 200 uM G418 response) was > 31.6 µM.

On to `CN1CCC(Nc2nc(N)c3ccc(-c4ccccc4C#N)nc3n2)CC1` [Example 118], for which the EC (100% of 200 uM G418 response) was in the range of 10 to 100 µM.

For `Cc1c2c(nc3nc(NC4CCN(Cc5ccc(C(=O)O)cc5)CC4)nc(N)c13)CCC2` [Example 673], the Emax was in the range of 100 to 3000% and the EC (100% of 200 uM G418 response) was in the range of 1 to 10 µM.

`Cc1c2c(nc3nc(NC4CCN(Cc5cnccc5O)CC4)nc(N)c13)CCC2` [Example 663]: the Emax was 100 to 3000% and the EC (100% of 200 uM G418 response) lay in the range of 1 to 10 µM.

On to `CNc1nc(N[C@H]2CN(C)C[C@H]2F)nc2nc(C)c(Br)c(C)c12` [Example 613], for which the EC (100% of 200 uM G418 response) lay within 1 to 10 µM.

`Cc1cc(C)c2c(N)nc(NCCN3CC(F)C3)nc2n1` [Example 163]: the Emax was 100 to 3000% and the EC (100% of 200 uM G418 response) lay in the range of 10 to 100 µM.

In the case of `CN1CCC(Nc2nc(N)c3c4c(cnc3n2)CCC4)CC1` [Example 274], the EC (100% of 200 uM G418 response) is 1 to 10 µM.

For `CNc1nc(N[C@H]2CN(Cc3ccccc3)C[C@H]2F)nc2nc(C)cc(C)c12` [Example 621], the Emax was in the range of 100 to 3000% and the EC (100% of 200 uM G418 response) lay within 10 to 100 µM.
